Source: patent US20040048790A1, “Inducing cellular immune responses to p53 using peptide and nucleic acid compositions” (priority 1999, published 2004)
Non-standard residues stand in square brackets, D forms with d. Residues, ends and D or L forms follow the SMILES beside them. Abu = CC[C@H](N)C(=O)O

Key:
[1] = test system: target cells pulsed with wild-type peptide; test: CTL recognition of targets pulsed with the wildtype peptide (51Cr release); format: cell-based, human; details: Number of donors yielding a positive response/total tested; Table XXVIIb
A*0202 = A*0202 (Homo sapiens, UniProt P04439, D140Y/D185E/D98H/E176V/E277Q/G131W/G231S/I119L/I121R/I166T/I218V/L180W/L300P/L318F/N151K/N90K/P208A/P217A/Q67R/Q86G/Q94H/R138H/R169H/T345S); test: biochemical
A*0203 = A*0203 (Homo sapiens, UniProt P04439, A173T/D140Y/D185E/D98H/E277Q/G131W/G231S/I119V/I121R/I166T/I218V/L180W/L300P/L318F/N151K/N90K/P208A/P217A/Q86G/Q94H/R138H/R169H/T345S); test: biochemical
A*0206 = A*0206 (Homo sapiens, UniProt P04439, D140Y/D185E/D98H/E176V/E277Q/F33Y/G131W/G231S/I119V/I121R/I166T/I218V/L300P/L318F/N151K/N90K/P208A/P217A/Q86G/Q94H/R138H/R169H/T345S); test: biochemical
[2] = test system: 0.221A2.1 cell line, peptide-loaded target; test: Primary in vitro CTL induction, 51Cr release against targets pulsed with the induction peptide; details: Number of donors yielding a positive response/total tested; Table XXVIIb

Compound | CTL Wild-type [1] | IC50 (A*0202) | IC50 (A*0203) | IC50 (A*0206) | CTL Peptide [2]
CC[C@H](NC(=O)[C@H](Cc1ccccc1)NC(=O)[C@H](CCSC)NC(=O)[C@@H](N)CCCCN)C(=O)N[C@@H](CCC(N)=O)C(=O)N[C@@H](CC(C)C)C(=O)N[C@@H](C)C(=O)N[C@@H](CCCCN)C(=O)N[C@H](C(=O)O)C(C)C [p53.132B4V9] (H-KMF[Abu]QLAKV-OH) | 0/4 | 13 nM | 9.1 nM | 37 nM | 5/5
CC[C@H](NC(=O)[C@H](Cc1ccccc1)NC(=O)[C@H](CCSC)NC(=O)[C@H](CCCCN)NC(=O)[C@H](CC(N)=O)NC(=O)[C@H](CC(C)C)NC(=O)[C@H](C)N)C(=O)N[C@@H](CCC(N)=O)C(=O)N[C@H](C(=O)O)C(C)C [p53.129B7V9] (H-ALNKMF[Abu]QV-OH) | 0/3 | – | – | – | 2/4
